SMILES strings stand for the structures.

The data set is described as follows: GHS categories as the set defines them, by LD50: 1 up to 5, 2 up to 50, 3 up to 300, 4 up to 2000, 5 above 2000 mg/kg. As to conditions: rat; in vivo; po. From the text:
[…]The data set underlying the modeling effort for this project was initially compiled by NICEATM and U.S. EPA’s CCTE. Briefly, LD50 data were collected from rat acute oral systemic toxicity tests, including limit tests, ranges/confidence intervals, and discrete LD50 values. The full data set included 21,200 LD50 entries for 15,688 substances. […] Data were reviewed to ensure that LD50 values with obvious errors in the extracted data such as unit conversion errors (e.g., comma and decimal separator misplacements) were either fixed or removed. After this review, 16,209 LD50 values remained. Many of the chemicals represented had multiple LD50 entries, requiring that a single representative value per Chemical Abstracts Service Registry Number (CASRN) identifier be defined to facilitate modeling efforts. Based on ATWG feedback and to define the representative LD50 as a protective value while accounting for the distribution across multiple LD50s, the median of the lowest quartile was computed using only discrete LD50 values (omitting limit test data and range and confidence interval data). A detailed summary of the data compilation is available online on the NICEATM webpage dedicated to the collaborative modeling project (NTP 2020).
[…][…] For categorical designations, limit test and range/confidence interval LD50 data were integrated wherever possible. As such, the number of chemicals with end point values/calls varies across the modeling end points (Table 3) based on whether chemicals had representative LD50 values and/or other data. If a chemical had both, the representative value was used to determine categorical calls rather than limit test data. Some data were useable only for certain end points and categories depending on the thresholds. For example, ranges that spanned multiple hazard categories were considered only for the binary (very toxic/nontoxic) end points and omitted from rendering a determination for hazard category assignment.
[…]The final data set comprising 11,992 chemicals was split into training and evaluation sets […], respectively. This process was performed semirandomly by ordering chemicals based on the five end points (categorical and continuous LD50 values) and partitioning every fourth record into the evaluation set accordingly. This approach was taken to ensure an equivalent distribution of the LD50 values and the different hazard categories between the training and the evaluation sets without supervised sampling of the chemicals based on structures (Figure 1A). The sources of the chemical structures were also kept equivalent between the two sets, with chemical structures obtained from DSSTox, being the highest quality, representing over 75% of each set (Figure 1B).
As to `CCOC(=O)c1ccc(NC(=O)C=C(C)C=CC=C(C)C=CC2=C(C)CCCC2(C)C)cc1`, the GHS category came to 5.
On to `NC(=O)CC1(CC(=O)O)CCCCC1`, for which the GHS category turned out to be 5.
In the case of `Nc1nc(=O)c2c(CCc3ccc(C(=O)O)cc3)c[nH]c2[nH]1` it was 5.
In the case of `C[C@@H]1C[C@H]2C3C[C@H](F)C4=CC(=O)C=CC4(C)[C@@]3(F)[C@@H](O)CC2(C)[C@@]1(O)C(=O)COC(=O)C(C)(C)C` (stereo not given in full) it was 5.
`COC(=O)C1=C(C)NC(C)=C(C(=O)O)C1c1cc([N+](=O)[O-])ccc1F` (stereo not given) yielded a GHS category of 5.
In the case of `CC(C)=CCN(CC=C(C)C)CCC(C#N)(c1cccc2ccccc12)C(C)C` (stereo not given), the GHS category is 4.
As for `CC(C)(CO)C(O)C(=O)NCCC(=O)NCCSSCCNC(=O)CCNC(=O)C(O)C(C)(C)CO` (stereo not given), the GHS category was 5.
In the case of `CCCCCCCC/C=C\CCCCCCCC(=O)OC[C@H](O)[C@H]1OC[C@H](OC(=O)CCCCCCC/C=C\CCCCCCCC)[C@H]1OC(=O)CCCCCCC/C=C\CCCCCCCC` it was 5; in that of `NC(=O)NC(c1ccccc1)c1ccccc1`, 5; in that of `CC(C)(c1ccc(OCCO)cc1)c1ccc(OCCO)cc1`, 5.
With `COC(=O)C1=C(C)NC(C)=C(C(=O)OC2COC3C(O)COC23)C1c1cccc([N+](=O)[O-])c1` (stereo not given), the GHS category came out at 5.
For the compound `CCCNC(=O)c1cnc2ccccn2c1=O`, the GHS category is reported as 3.
In the case of `Brc1nc[nH]c1Br` it was 4; in that of `CCOC(=O)C(=O)Nc1cc(OCCOC)ncn1`, 4.
In the case of `FC1(F)COC1(F)F` it was 4; in that of `CCCCCCCCCCCCBr`, 5; in that of `COc1ccc(C2(c3ccc(OC)c(Cl)c3)NC(=O)NC2=O)cc1` (stereo not given), 5.
The result for `CCCCC(=O)N(Cc1ccc(-c2ccccc2-c2nn[nH]n2)cc1)[C@H](C(=O)OCc1ccccc1)C(C)C` reads 4; that for `Nc1ccc(C(=O)c2ccccc2)cc1O`, 5; that for `CNC(=O)C(=NNc1ccc([N+](=O)[O-])cc1)C(C)=O`, 5.
In turn, `CCC(=O)OCC(C)(C)OC(C)C1CCCC(C)(C)C1` (stereo not given) displayed a GHS category of 5.
The compound `CNc1nc(Nc2ccccc2)nc(Nc2ccc(C=Cc3ccc(Nc4nc(NC)nc(Nc5ccccc5)n4)cc3S(=O)(=O)O)c(S(=O)(=O)O)c2)n1` yielded a GHS category of 5.
In turn, `CNC(C)C(O)c1ccc(NS(C)(=O)=O)cc1` (stereo not given) returned a GHS category of 5.
With `C[C@@H]1C[C@@H](O)CC(C)(C)C1=O`, the GHS category is 5.
The result for `O=S(O)c1ccc(Cl)cc1` reads 4; that for `Cc1cccc(Nc2ccncc2S(=O)(=O)NC(=O)NC(C)C)c1`, 5.
`CCCc1c(Cc2ccc(-c3ccccc3-c3nn[nH]n3)cc2)c(=O)nc2nc(N(CC)CC)[nH]n12` came in with a GHS category of 4.
`O=C(CCl)OC(=O)CCl` displayed a GHS category of 3.
In the case of `Oc1c(-c2[nH]c3ccccc3c2O)[nH]c2ccccc12` it was 5.
In the case of `CN[C@@H]1[C@@H](O)[C@@H](O[C@@H]2[C@@H](O)[C@H](OC3OC(CN)=CCC3N)[C@@H](N)C[C@H]2N)OC[C@]1(C)O` (stereo not given in full) it was 5; in that of `CCCO[Si](OCCC)(OCCC)OCCC`, 5.
In turn, `Nc1ccc(S(=O)(=O)c2ccc(NCCO)cc2)cc1` returned a GHS category of 5.
In the case of `CN1OCC(=Cc2cc(C(C)(C)C)c(O)c(C(C)(C)C)c2)C1=O` it was 4; in that of `N#CC1CCCC2OCC(c3ccccc3)N12` (stereo not given), 5.
The result for `O=S(=O)(O)c1cc(-n2ncc(-c3ccccc3)n2)ccc1C=Cc1ccc(-n2ncc(-c3ccccc3)n2)cc1S(=O)(=O)O` reads 5.
In turn, `CN(SN(C)C(=O)Oc1ccc(C(C)(C)c2ccc(OC(=O)N(C)SN(C)C(=O)ON=C3CSCCS3)cc2)cc1)C(=O)ON=C1CSCCS1` showed a GHS category of 4.
Take `CC(C)c1ccc(S(=O)(=O)O)cc1`: the GHS category worked out at 5.
The result for `CO/N=C(\C(=O)N[C@@H]1C(=O)N2C(C(=O)[O-])=C(C[N+]34CCC(C(N)=O)(CC3)CC4)CS[C@H]12)c1nsc(N)n1` reads 5.
The result for `Nc1c(I)c(C(=O)O)c(I)c(C(=O)NCC(O)CO)c1I` (stereo not given) reads 5; that for `COCC1COC(Cn2cncn2)(c2cc3ccccc3o2)O1` (stereo not given), 4.
`N#CCC(=O)OCC(COC(=O)CC#N)(COC(=O)CC#N)COC(=O)CC#N`: the GHS category stood at 5.
The result for `O=C1c2ccccc2C(=O)C1c1ccc2ccccc2n1` reads 5; that for `CCSC`, 5.
In the case of `Cc1nn(C)c(O)c1C(=O)c1ccc(C(F)(F)F)cc1S(C)(=O)=O`, the GHS category is reported as 5.
The result for `CCC(=O)OC1CC2CC1C1CC=CC21` (stereo not given) reads 5; that for `CCCCOC(=O)[C@@H](C)Oc1ccc(Oc2ccc(C#N)cc2F)cc1`, 5.
The result for `CC(C)(C)C(=O)OCOC(=O)[C@@H]1N2C(=O)[C@@H](NC(=O)[C@H](N)c3ccccc3)[C@H]2SC1(C)C` reads 5.
The result for `CCCCCCCCCCCCO[PH](=O)OCCCCCCCCCCCC` reads 5; that for `CC(=O)CC(=O)OCCOC(=O)CC(C)=O`, 5.
Consider `Cc1c(OCC(F)(F)F)ccnc1CS(=O)c1nc2ccccc2[nH]1` (stereo not given), for which the GHS category is on record as 5.
Consider `OCC(O)COC1CCCCC1` (stereo not given), for which the GHS category was found to be 5.
`COc1ccccc1C1NC(=O)C(C)S1` (stereo not given) yielded a GHS category of 5.
The result for `CC(C)=CCCC(C)C=O` (stereo not given) reads 5; that for `O=C(Nc1cccc2c(=O)c3c(ccc4c5cc(NC(=O)c6ccccc6)c6c(=O)c7ccccc7c(=O)c6c5[nH]c43)c(=O)c12)c1ccccc1`, 5.
Regarding `Cn1cc(C(=O)O)c(C(F)F)n1`, the GHS category is 5.
Take `C=C[Si](C)(C)O[Si](O[Si](C)(C)C=C)(O[Si](C)(C)C=C)O[Si](C)(C)C=C`: the GHS category turned out to be 5.
In the case of `O=[N+]([O-])c1ccc2c(c1)COP(=S)(NC1CCCCC1)O2` (stereo not given) it was 3.
In the case of `O=Cc1c(O)ccc2ccccc12` it was 5.
The result for `CC1(C)S[C@@H]2[C@H](/N=C/N3CCCCCC3)C(=O)N2[C@H]1C(=O)O` reads 5; that for `Cc1cc2c(cc1S(N)(=O)=O)S(=O)(=O)CCC2`, 5.
Compound `O=C1c2ccccc2C(=O)c2c(NCCO)ccc(NCCO)c21` registered a GHS category of 5.
The result for `COCCCNc1nc(NC(C)C)nc(SC)n1` reads 5; that for `CC1(C(O)CO)OC(c2ccc(Cl)cc2)OC2COC(c3ccc(Cl)cc3)OC21` (stereo not given), 5; that for `O=c1ccc2cccnc2n1-c1cccc(C(F)(F)F)c1`, 3.
As to `CCCc1c(Cc2ccc(-c3ccccc3-c3nn[nH]n3)cc2)c(=O)nc2nc(SC)[nH]n12`, the GHS category is 4.
In the case of `CCCCCCCCCCOC` it was 5; in that of `CC(C)=CCOc1ccc(/C=C/C(=O)c2ccc(OCC=C(C)C)cc2OCC(=O)O)cc1`, 5.
The result for `CC(=O)OCC(=O)[C@@]1(O)CC[C@H]2[C@@H]3C[C@H](C)C4=CC(=O)C=C[C@]4(C)[C@H]3[C@@H](O)C[C@@]21C` reads 5; that for `CCC(C)CCCC(C)CCCC(C)C` (stereo not given), 5.
The result for `CCCC(=O)NC(C)C(=O)O` (stereo not given) reads 5; that for `COc1cc(C)c(C(=O)c2c(OC)ccc(Br)c2C)c(OC)c1OC`, 5.
The compound `CCCCCNC(=O)c1cnc2cccc(C)n2c1=O` gave a GHS category of 3.
For the compound `CN1C(=O)C(C)(C)Oc2cc(C(=O)c3ccc(Cl)cc3)ccc21`, the GHS category was found to be 5.
Take `CCCCN1CCCC1=O`: the GHS category was determined as 4.
In turn, `CCCCCCCC(=O)OCCC(C)C` gave a GHS category of 5.
As to `CN1CC(O)N(c2cc(C(C)(C)C)on2)C1=O` (stereo not given), the GHS category was 4.
In the case of `Nc1ccc2c(c1)C(=O)c1ccccc1C2=O` it was 5.
In the case of `O=C1c2ccccc2C(=O)c2c(Nc3ccccc3)ccc(O)c21` it was 5.
`CC(=O)Nc1cc(NS(=O)(=O)C(F)(F)F)c(C)cc1C` yielded a GHS category of 5.
On to `CCc1c(Cc2ccc(-c3ccccc3-c3nn[nH]n3)cc2)c(=O)nc2nc[nH]n12`, for which the GHS category was 4.
`COC(=O)C(C)(C)c1ccc(Br)cc1`: the GHS category came to 5.
`O=C1COc2cc(C(=O)c3ccccc3)ccc2N1` gave a GHS category of 5.
Take `Fc1c(F)c(F)c(Cl)c(F)c1F`: the GHS category is 5.
In the case of `CC(C)CCCC(C)CCO` (stereo not given) it was 5.
Regarding `NC1CCN(c2nc3c(cc2F)c(=O)c(C(=O)O)cn3-c2ccc(F)cc2F)C1` (stereo not given), the GHS category is recorded as 5.

Source of the values: the CATMoS acute toxicity set (Mansouri et al. 2021).
